From the supplement of paper PMC4862054

Legend:
Conditions in all cases: incubation time: 72 h
[1] = system: CAL-120; experiment: normalised response (% of control), CellTox Green; higher = less cell death (100 = DMSO, 0 = benzethonium chloride kill control)
Summary of the method: (§1)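 Every value is a normalised signal taken at one concentration of a dilution series. Compound was placed in 384-well plates at 5 concentrations in 10-fold steps over a compound-specific 10,000-fold range, and 20 µl of breast cancer cell suspension was seeded onto it. After 72 h, CellTox Green fluorescence (485/520 nm) was measured first and CellTiter-Glo luminescence second, following 10 min at room temperature. Each plate was scaled to 0.1 % DMSO (100) and a positive kill control (0).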

[2] = system: CAL-148; experiment: as above
Summary of the method: as §1

[3] = system: HCC1937; experiment: as above
Summary of the method: as §1

[4] = system: HCC1599; experiment: as above
Summary of the method: as §1

[5] = system: BT-474; experiment: as above
Summary of the method: as §1

[6] = system: BT-549; experiment: as above
Summary of the method: as §1

[7] = system: MDA-MB-468; experiment: as above
Summary of the method: as §1

[8] = system: MFM-223; experiment: as above
Summary of the method: as §1

[9] = system: HDQ-P1; experiment: as above
Summary of the method: as §1

[10] = system: MDA-MB-453; experiment: as above
Summary of the method: as §1

[11] = system: CAL-51; experiment: as above
Summary of the method: as §1

[12] = system: HCC1143; experiment: as above
Summary of the method: as §1

[13] = system: MCF-10A; experiment: as above
Summary of the method: as §1

[14] = system: CAL-85-1; experiment: as above
Summary of the method: as §1

[15] = system: MDA-MB-436; experiment: as above
Summary of the method: as §1

[16] = system: MDA-MB-231; experiment: as above
Summary of the method: as §1

[17] = system: DU-4475; experiment: as above
Summary of the method: as §1

[18] = system: CAL-120; experiment: normalised response (% of control), CellTiter-Glo; higher = more viable cells (100 = DMSO, 0 = benzethonium chloride kill control)
Experimental: (§2)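 DSRT, 72 h incubation, CellTox Green / CellTiter-Glo readout. Signal is normalised to DMSO and benzethonium chloride controls. Value is the normalised response at dose 3.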

[19] = system: CAL-148; experiment: as above
Experimental: as §2

[20] = system: Hs578T; experiment: as above
Experimental: as §2

[21] = system: HCC1937; experiment: as above
Experimental: as §2

[22] = system: HCC1599; experiment: as above
Experimental: as §2

[23] = system: BT-474; experiment: as above
Experimental: as §2

[24] = system: BT-549; experiment: as above
Experimental: as §2

[25] = system: MDA-MB-468; experiment: as above
Experimental: as §2

[26] = system: MFM-223; experiment: as above
Experimental: as §2

[27] = system: HDQ-P1; experiment: as above
Experimental: as §2

[28] = system: MDA-MB-453; experiment: as above
Experimental: as §2

[29] = system: CAL-51; experiment: as above
Experimental: as §2

[30] = system: HCC1143; experiment: as above
Experimental: as §2

[31] = system: MCF-10A; experiment: as above
Experimental: as §2

[32] = system: SK-BR-3; experiment: as above
Experimental: as §2

[33] = system: CAL-85-1; experiment: as above
Experimental: as §2

[34] = system: MDA-MB-436; experiment: as above
Experimental: as §2

[35] = system: MDA-MB-231; experiment: as above
Experimental: as §2

[36] = system: DU-4475; experiment: as above
Experimental: as §2

[37] = system: Hs578T; experiment: normalised response (% of control), CellTox Green; higher = less cell death (100 = DMSO, 0 = benzethonium chloride kill control)
Summary of the method: as §1

| SMILES | normalised response [1] [%] | normalised response [2] [%] | normalised response [3] [%] | normalised response [4] [%] | normalised response [5] [%] | normalised response [6] [%] | normalised response [7] [%] | normalised response [8] [%] | normalised response [9] [%] | normalised response [10] [%] | normalised response [11] [%] | normalised response [12] [%] | normalised response [13] [%] | normalised response [14] [%] | normalised response [15] [%] | normalised response [16] [%] | normalised response [17] [%] | normalised response [18] [%] | normalised response [19] [%] | normalised response [20] [%] | normalised response [21] [%] | normalised response [22] [%] | normalised response [23] [%] | normalised response [24] [%] | normalised response [25] [%] | normalised response [26] [%] | normalised response [27] [%] | normalised response [28] [%] | normalised response [29] [%] | normalised response [30] [%] | normalised response [31] [%] | normalised response [32] [%] | normalised response [33] [%] | normalised response [34] [%] | normalised response [35] [%] | normalised response [36] [%] | normalised response [37] [%] |
| --- | --- | --- | --- | --- | --- | --- | --- | --- | --- | --- | --- | --- | --- | --- | --- | --- | --- | --- | --- | --- | --- | --- | --- | --- | --- | --- | --- | --- | --- | --- | --- | --- | --- | --- | --- | --- | --- |
| CN(C)c1nc(N(C)C)nc(N(C)C)n1 [Altretamine] (100 nM) | 106 | 106 | 110 | 104 | 102 | 89.1 | 123 | 98.5 | 64.1 | 100 | 109 | 113 | 101 | 103 | 102 | 118 | 104 | 103 | 106 | 106 | 99.2 | 99.9 | 98.4 | 95.4 | 99 | 106 | 98.2 | 105 | 107 | 97.9 | 105 | 112 | 102 | 99.1 | 99.5 | 104 |  |
| Nc1cc(C(F)(F)F)c(-c2cc(N3CCOCC3)nc(N3CCOCC3)n2)cn1 [Buparlisib] (100 nM) | 96.8 | 93.1 | 78.7 | 93.5 | 99 | 98.1 | 163 | 96.7 | 96.4 | 91 | 94.8 |  | 102 | 109 | 85.7 | 78.2 | 98.6 | 96.2 | 101 | 99.3 | 98 | 111 | 97.3 | 110 | 92.1 | 86.9 | 95.2 | 97.8 | 88.8 | 99 | 88.5 | 91.2 | 101 | 98.2 | 93 | 95.9 | 104 |
| O=P1(N(CCCl)CCCl)NCCCO1 (stereo not given) [Cyclophosphamide] (400 nM) | 102 | 89.6 | 93.7 | 98.8 | 98.5 | 101 |  | 87.4 |  | 100 | 92.2 | 116 |  | 101 | 104 | 107 | 99 | 97.8 | 102 | 98.9 | 94.6 | 111 | 99 | 104 | 102 | 102 | 99.6 | 108 | 93.8 | 98.7 | 103 | 109 | 99.9 | 97.1 | 98.3 | 105 | 84.3 |
| CCOC(=O)CCNc1cc(N2CCc3ccccc3CC2)nc(-c2ccccn2)n1 [GSK-J4] (1000 nM) | 97 | 97.7 | 92.9 | 95.1 | 100 | 97.1 | 110 | 86.8 | 89.9 | 102 | 86.2 |  | 103 | 113 | 84.1 | 112 | 106 | 105 | 92.7 | 98.3 | 84.7 | 100 | 99.7 | 47.3 | 67.7 | 93.6 | 95.4 | 70.3 | 57.2 | 103 | 106 | 98.5 | 96.9 | 89.8 | 95.8 | 99.5 | 80.2 |
| COc1cc2ncnc(Nc3ccc(F)c(Cl)c3)c2cc1OCCCN1CCOCC1 [Gefitinib] (100 nM) | 83.3 | 87.3 | 87.2 | 102 | 100 | 94.8 | 92.2 | 73.2 |  | 101 | 89.6 | 116 | 101 | 93.8 | 98.3 | 70.7 | 99.9 | 99.4 | 113 | 99.5 | 93.3 | 82.5 | 96.5 | 91.8 | 96 | 101 | 80.8 | 96.5 | 90.7 | 103 | 59.3 | 94.8 | 88 | 104 | 106 | 103 | 68 |
| O=C(Nc1ccncc1)C(=O)c1cn(Cc2ccc(Cl)cc2)c2ccccc12 [Indibulin] (100 nM) | 93.1 | 105 | 98.3 | 111 | 101 | 94.8 | 136 | 105 | 111 | 100 | 100 | 120 | 94.4 | 81.3 | 90.3 | 105 | 105 | 97.5 | 113 | 100 | 91.5 | 89.1 | 98.1 | 81.8 | 95.8 | 98.5 | 96.8 | 89.1 | 62 | 98.5 | 108 | 96.2 | 87.7 | 92 | 106 | 106 |  |
| Oc1ccc2c(c1)CC[C@H](c1ccccc1)[C@@H]2c1ccc(OCCN2CCCC2)cc1 [Lasofoxifene] (10 nM) | 104 | 90.8 | 77 | 114 | 102 | 108 |  | 102 | 90.8 | 110 | 110 | 117 | 107 | 99.8 | 116 | 114 | 104 | 114 | 111 | 103 | 95.5 | 106 | 102 | 115 | 90.8 | 105 | 95.3 | 99.1 | 91.3 | 104 | 108 | 112 | 103 | 109 | 110 | 107 |  |
| CO[C@H]1C[C@@H]2CC[C@@H](C)[C@@](O)(O2)C(=O)C(=O)N2CCCC[C@H]2C(=O)O[C@H]([C@H](C)C[C@@H]2CC[C@@H](OP(C)(C)=O)[C@H](OC)C2)CC(=O)[C@H](C)/C=C(\C)[C@@H](O)[C@@H](OC)C(=O)[C@H](C)C[C@H](C)/C=C/C=C/C=C/1C [Ridaforolimus] (1 nM) | 103 | 82.1 | 119 | 111 | 101 | 84.4 | 115 | 105 |  | 101 | 106 | 111 | 94.6 | 95.2 | 75.3 | 107 | 98.9 | 80.5 | 89.3 | 71.7 | 79.2 | 88.1 | 94 | 68.4 | 62.1 | 84.7 | 91.7 | 83.8 | 90.9 | 81.1 | 107 | 73.5 | 74.4 | 88.3 | 93.7 | 92.7 | 81 |
| COc1cc2/c(=N/c3ccc(Br)cc3F)nc[nH]c2cc1OCC1CCN(C)CC1 [Vandetanib] (10 nM) | 97 | 89.6 | 84.5 | 81.1 | 95.4 | 98.2 | 104 | 99.1 |  | 80.8 | 95.5 | 91.8 | 83.3 | 101 | 55 | 85.3 | 91.9 | 95.7 | 89 | 94.5 | 94.6 | 85.7 | 87.1 | 98 | 87 | 86.5 | 91.7 | 72.2 | 87.1 | 92.1 | 78.3 | 82.3 | 90.2 | 97.2 | 92.5 | 93.2 |  |
